Some test systems named below: 786-0 renal; UACC-62 melanoma; HOP-62 NSCLC; LOX IMVI melanoma; HCT-116 colon; K-562 leukemia; SR leukemia; RPMI-8226 leukemia; IGROV1 ovarian; NCI-H522 lung.
Assay in all cases: NCI-60 cell line screen, 48 h

Where “and” joins values, the source holds several entries; their conditions need not be identical. Identical values can stand only once.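 A five-concentration, 48-hour dose response in 96-well plates underlies each endpoint, interpolated linearly between surrounding concentrations. GI50 marks 50% less growth. The concentration for full growth arrest is given as TGI.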

Turning to `Cc1cc(Nc2cc(N3CCN(C)CC3)nc(C#Cc3ccccc3)n2)n[nH]1`, the GI50 in the assay with 786-0 renal was 3.13 µM; in the assay with UACC-62 melanoma it was 2.45 µM; with HOP-62 NSCLC, 3.19 µM; in the assay with LOX IMVI melanoma, 1.85 µM; in the assay on HCT-116 colon, 1.4 µM; with K-562 leukemia, 3.79 µM. Moreover, the GI50 in the assay on SR leukemia is 3.47 µM; in the assay on RPMI-8226 leukemia, 12.6 µM; with IGROV1 ovarian, 1.13 µM. Besides, the TGI with 786-0 renal was determined as 14.2 µM; with UACC-62 melanoma it was 15.1 µM; with HOP-62 NSCLC, 13.9 µM; in the assay on LOX IMVI melanoma it was 12.8 µM; in the assay on HCT-116 colon, 12.7 µM; in the assay on K-562 leukemia, 24.4 µM. The results for the TGI in the assay on SR leukemia, in the assay with RPMI-8226 leukemia and in the assay with IGROV1 ovarian were 20.4 µM, 59.3 µM and 6.05 µM, respectively.

On to `C=C(C[N+](C)(C)C)N/N=C/c1oc(-c2ccc(OC)c(OC)c2)c(-c2ccc(OC)c(OC)c2)c1[N+](=O)[O-]`, for which the TGI was 32.9 µM with 786-0 renal; 28.9 µM in the assay with LOX IMVI melanoma; 32.5 µM with HCT-116 colon; 52.5 µM in the assay with K-562 leukemia; 23.9 µM with SR leukemia; 41.4 µM in the assay on RPMI-8226 leukemia. The figures for the TGI in the assay on NCI-H522 lung and with IGROV1 ovarian were 45.3 µM and 34.3 µM, respectively.

In the case of `O=c1c2ccccc2c(=O)c2c1sc1c(=O)c3ccc(O)cc3c(=O)c12`, the GI50 with 786-0 renal is 1.8 µM; in the assay on UACC-62 melanoma, 0.174 µM; in the assay on HOP-62 NSCLC it was 0.15 µM; with HCT-116 colon, 0.651 µM; with K-562 leukemia, 0.715 µM; in the assay with SR leukemia it was 1.08 µM. Further, the results for the GI50 with RPMI-8226 leukemia and with IGROV1 ovarian were 1.42 µM and 2.1 µM, respectively. Further, the TGI in the assay on 786-0 renal was 4.44 µM; with UACC-62 melanoma, 0.331 µM; in the assay with HOP-62 NSCLC, 0.285 µM; in the assay on HCT-116 colon, 3.9 µM; in the assay on K-562 leukemia, over 100 µM; with SR leukemia, over 100 µM. Further, the values for the TGI in the assay on RPMI-8226 leukemia and in the assay on IGROV1 ovarian were 5.25 µM and 6.84 µM, respectively.

For the molecule `CCCCCCCCCCCCCCCCCCNC(=O)[C@H]1CSC(c2ccc(F)c(OC)c2)N1` (some centres undefined), the GI50 is 1.01 µM in the assay on 786-0 renal; 0.639 µM in the assay on UACC-62 melanoma; 0.843 µM with HOP-62 NSCLC; 0.788 µM in the assay with LOX IMVI melanoma; 0.835 µM with HCT-116 colon; 0.774 µM in the assay on K-562 leukemia. In addition, the GI50 is 0.637 µM in the assay on SR leukemia, 0.195 µM in the assay on RPMI-8226 leukemia and 1.43 µM in the assay on IGROV1 ovarian. For the same molecule, the TGI in the assay with 786-0 renal came out at 1.91 µM; in the assay with UACC-62 melanoma, 1.28 µM; with HOP-62 NSCLC it was 1.6 µM; with LOX IMVI melanoma, 2.07 µM; with HCT-116 colon it was 1.64 µM; in the assay on K-562 leukemia, 2.45 µM. Also, the values for the TGI in the assay on SR leukemia, in the assay with RPMI-8226 leukemia and in the assay on IGROV1 ovarian were 1.91 µM, 0.826 µM and 5.05 µM, respectively.

Turning to `CCCCOP1(=O)C=CC(Cl)=C(C)C1` (centres undefined), the TGI is 49.3 µM in the assay with 786-0 renal; 54.4 µM with UACC-62 melanoma; over 100 µM in the assay with HOP-62 NSCLC; 46.9 µM in the assay on HCT-116 colon; 50 µM in the assay with K-562 leukemia; 39.4 µM in the assay on SR leukemia. Moreover, the TGI with RPMI-8226 leukemia was 85.6 µM.

Turning to `CC(C)(C)c1cc(C(=O)O)c(C(c2ccccc2)c2ccccc2C(=O)O)c(C(=O)O)c1` (centres undefined), the TGI with 786-0 renal, in the assay with UACC-62 melanoma, in the assay on HOP-62 NSCLC, in the assay on LOX IMVI melanoma, in the assay with HCT-116 colon and in the assay on K-562 leukemia was over 100 µM in each case. In addition, the TGI is over 100 µM in the assay on SR leukemia and 5.16 µM in the assay with NCI-H522 lung.

Take `BrC(Br)([P+](c1ccccc1)(c1ccccc1)c1ccccc1)[P+](c1ccccc1)(c1ccccc1)c1ccccc1`: the TGI in the assay on 786-0 renal was 26.9 µM; in the assay on UACC-62 melanoma, 29.8 µM; in the assay on HOP-62 NSCLC, over 100 µM; with LOX IMVI melanoma it was 27.2 µM; in the assay on HCT-116 colon, 46 µM; in the assay with SR leukemia, 56 µM. In addition, the TGI in the assay on RPMI-8226 leukemia is 34.4 µM; in the assay on NCI-H522 lung, 28.7 µM; in the assay with IGROV1 ovarian, 43.2 µM.

As for `O=C(NOC(=O)c1ccc([N+](=O)[O-])cc1)c1ccc(Cl)cc1`, the TGI with 786-0 renal, with UACC-62 melanoma, with HOP-62 NSCLC, with HCT-116 colon, in the assay on K-562 leukemia and with SR leukemia was over 100 µM in each case. In addition, the TGI with RPMI-8226 leukemia is over 100 µM; in the assay with NCI-H522 lung, 82.2 µM; in the assay with IGROV1 ovarian, 59.4 µM.

Regarding `CNc1ccc(N=Nc2cccc3ncccc23)cc1`, the GI50 with 786-0 renal was over 88.4 µM; in the assay on UACC-62 melanoma, 13.1 µM; with HOP-62 NSCLC, 49 µM; in the assay on LOX IMVI melanoma, 22.3 µM; in the assay with K-562 leukemia it was 19.3 µM; in the assay with SR leukemia it was 16.1 µM. Also, the GI50 in the assay with RPMI-8226 leukemia was 7.43 µM; with NCI-H522 lung, 43.7 µM. The TGI with 786-0 renal is over 100 µM; in the assay on UACC-62 melanoma, over 100 µM; with HOP-62 NSCLC, over 100 µM; with LOX IMVI melanoma, over 100 µM; in the assay on K-562 leukemia it was over 100 µM; with SR leukemia, over 88.7 µM. Besides, the TGI with RPMI-8226 leukemia was over 65.6 µM; in the assay on NCI-H522 lung it was over 100 µM; with IGROV1 ovarian, over 100 µM.

Consider `CC12O[Te]34OC1(C)C(C)(O3)C2(C)O4`, for which the TGI with 786-0 renal was determined as 29.3 µM; in the assay with UACC-62 melanoma, 87.5 µM; in the assay with HOP-62 NSCLC, 36.8 µM; in the assay with LOX IMVI melanoma, 16.4 µM; in the assay with HCT-116 colon, 23.2 µM; in the assay on SR leukemia it was 34 µM. For the same molecule, the TGI with NCI-H522 lung was determined as 23.6 µM; in the assay with IGROV1 ovarian, 24.9 µM.

Turning to `O=C1OC(c2ccc(Cl)c3ccccc23)c2ccccc21` (centres undefined), the TGI in the assay on 786-0 renal, with UACC-62 melanoma, in the assay with HOP-62 NSCLC, in the assay on HCT-116 colon, with K-562 leukemia and with SR leukemia was over 100 µM throughout. In addition, the TGI in the assay with RPMI-8226 leukemia, in the assay on NCI-H522 lung and with IGROV1 ovarian was over 100 µM each time.

As for `COc1cc(-c2nn3c(=O)n(-c4ccc(Cl)cc4)c(=O)nc3s2)cc(OC)c1OC`, the GI50 was 17.4 µM in the assay on 786-0 renal; over 100 µM in the assay with UACC-62 melanoma; over 50 µM in the assay with LOX IMVI melanoma; 15.8 µM in the assay on K-562 leukemia; over 100 µM in the assay with RPMI-8226 leukemia; over 50 µM in the assay with NCI-H522 lung. Besides, the GI50 with IGROV1 ovarian was over 50 µM. The TGI with 786-0 renal was 50 µM and 41.4 µM; with UACC-62 melanoma it was over 100 µM; in the assay with HOP-62 NSCLC, over 71.9 µM; with LOX IMVI melanoma, over 50 µM; in the assay with HCT-116 colon, over 100 µM; with K-562 leukemia it was 50 µM and > 31.6 µM. Besides, the TGI with RPMI-8226 leukemia, with NCI-H522 lung and in the assay on IGROV1 ovarian was over 100 µM throughout.

Consider `C(/C=C/N1CCCC1)=C\c1nc(N2CCCC2)c2ccccc2n1`, for which the TGI was 30.4 µM in the assay on 786-0 renal; 44.1 µM in the assay with UACC-62 melanoma; 35.2 µM with HOP-62 NSCLC; 32 µM with LOX IMVI melanoma; 33.8 µM with HCT-116 colon; 35.6 µM in the assay on K-562 leukemia. For the same molecule, the results for the TGI in the assay on SR leukemia, in the assay with RPMI-8226 leukemia and in the assay with IGROV1 ovarian were 33.9 µM, 42.3 µM and 39.6 µM, respectively.

In the case of `COc1cc2c(c(OC)c1OC)-c1ccc(SC)c(=O)cc1[C@@H](NC(=O)c1ccc(F)cc1)CC2`, the GI50 with 786-0 renal was under 0.01 µM; in the assay on UACC-62 melanoma it was under 0.01 µM; with HOP-62 NSCLC it was under 0.01 µM; in the assay on HCT-116 colon it was under 0.01 µM; in the assay on K-562 leukemia, under 0.01 µM; in the assay with SR leukemia, 0.0167 µM and < 0.01 µM. The GI50 in the assay with IGROV1 ovarian is under 0.01 µM. Further, the TGI in the assay on 786-0 renal is 11.5 µM; in the assay on UACC-62 melanoma, 27.6 µM; with HOP-62 NSCLC it was 39.9 µM; in the assay with HCT-116 colon, under 0.01 µM; in the assay with K-562 leukemia, over 100 µM; with SR leukemia, over 100 µM. The TGI in the assay with NCI-H522 lung was under 0.01 µM; with IGROV1 ovarian, over 100 µM.

For the molecule `CCOC(=O)/N=c1\ssc(Cl)c1Cl`, the GI50 in the assay on 786-0 renal was 12.8 µM; in the assay on UACC-62 melanoma it was 14 µM; with HOP-62 NSCLC it was 43.7 µM; in the assay with LOX IMVI melanoma, 1.9 µM; in the assay with HCT-116 colon it was 3.35 µM; in the assay on K-562 leukemia, 1.93 µM. Moreover, the GI50 is 0.414 µM with SR leukemia, 3.52 µM with RPMI-8226 leukemia and 3.87 µM in the assay on NCI-H522 lung. In addition, the TGI in the assay with 786-0 renal was over 100 µM; in the assay with UACC-62 melanoma it was 29.6 µM; with HOP-62 NSCLC it was over 100 µM; with LOX IMVI melanoma, 3.99 µM; in the assay on HCT-116 colon it was over 100 µM; in the assay on K-562 leukemia, over 100 µM. The TGI in the assay on SR leukemia was over 100 µM; in the assay with RPMI-8226 leukemia it was over 100 µM; in the assay on NCI-H522 lung, 95.9 µM.

As to `O=C1Nc2ccc(Br)cc2C1=Nc1ccc(Cl)cc1`, the TGI in the assay on 786-0 renal is over 100 µM; with UACC-62 melanoma, 12.6 µM; with HOP-62 NSCLC, 52.1 µM; with LOX IMVI melanoma, 31.8 µM; in the assay on HCT-116 colon it was 62.9 µM; with K-562 leukemia it was 73.3 µM. Further, the TGI in the assay on SR leukemia was over 100 µM; with RPMI-8226 leukemia, 26.5 µM; in the assay on NCI-H522 lung, 24.6 µM.

The values above are taken from PubChem BioAssay (NCI).
